# Results reported in patent US12594268B2, “Methods of treating Fabry disease in patients having a mutation in the GLA gene” (Amicus Therapeutics, Inc., priority 2018, dated 2026).
# Changes are numbered by the printed parent chain.
# Key:
# [1] = target: T1, α-Gal A mutant form R392T (Homo sapiens, UniProt P06280, R392T); assay: α-Gal A activity in lysates of transfected HEK-293 cells, R392T; assay type: cell-based
# T1 construct: expressed in transfected cells; host or cells: HEK-293
# T1 sequence (P06280 32-429 R392T): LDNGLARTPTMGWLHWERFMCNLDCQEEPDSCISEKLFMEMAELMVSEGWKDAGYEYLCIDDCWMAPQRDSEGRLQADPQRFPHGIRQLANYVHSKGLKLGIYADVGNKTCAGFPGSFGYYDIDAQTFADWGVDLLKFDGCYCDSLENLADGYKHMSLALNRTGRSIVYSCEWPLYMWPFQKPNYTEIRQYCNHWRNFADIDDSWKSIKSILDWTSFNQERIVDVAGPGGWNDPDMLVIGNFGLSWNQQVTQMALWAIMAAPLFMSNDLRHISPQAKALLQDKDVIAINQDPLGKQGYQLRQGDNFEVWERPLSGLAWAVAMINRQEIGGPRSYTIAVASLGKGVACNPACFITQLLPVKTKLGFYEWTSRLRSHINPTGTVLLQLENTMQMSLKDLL
# Description: (§1) Baseline and 10 μM migalastat α-Gal A activity: Differences in the α-Gal A activity between lysates incubated in the absence and presence of 10 μM migalastat were determined using a one-tailed, Mann Whitney U test; an increase at 10 μM migalastat with a p<0.05 was considered significant.
# (§2) 10 μM migalastat α-Gal A activity (% WT)=(α-Gal A activity in mutant transfected cell lysates incubated with 10 μM migalastat÷α-Gal A activity in wild-type transfected cell lysates without migalastat)*100.
# (§3) Absolute increase (% WT)=is the 10 μM migalastat α-Gal A activity (% WT) minus the baseline α-Gal A activity (% WT).
# (§4) Relative increase is the 10 μM migalastat α-Gal A activity in mutant transfected cell lysates÷baseline α-Gal A activity in mutant transfected cell lysates incubated without migalastat.
# [2] = target: T2, α-Gal A mutant form D155E (Homo sapiens, UniProt P06280, D155E); assay: α-Gal A activity in lysates of transfected HEK-293 cells, D155E; assay type: cell-based
# T2 construct: expressed in transfected cells; host or cells: HEK-293
# T2 sequence (P06280 32-429 D155E): T1 sequence (P06280 32-429 R392T) with D124E, T361R
# Description: as §1, §2, §3, §4
# [3] = target: T3, α-Gal A mutant form S62delinsLA (Homo sapiens, UniProt P06280, INS61L/S62A); assay: α-Gal A activity in lysates of transfected HEK-293 cells, S62delinsLA; assay type: cell-based
# T3 construct: expressed in transfected cells; host or cells: HEK-293
# T3 sequence (P06280 with tags, fused parts or gaps INS61L/S62A): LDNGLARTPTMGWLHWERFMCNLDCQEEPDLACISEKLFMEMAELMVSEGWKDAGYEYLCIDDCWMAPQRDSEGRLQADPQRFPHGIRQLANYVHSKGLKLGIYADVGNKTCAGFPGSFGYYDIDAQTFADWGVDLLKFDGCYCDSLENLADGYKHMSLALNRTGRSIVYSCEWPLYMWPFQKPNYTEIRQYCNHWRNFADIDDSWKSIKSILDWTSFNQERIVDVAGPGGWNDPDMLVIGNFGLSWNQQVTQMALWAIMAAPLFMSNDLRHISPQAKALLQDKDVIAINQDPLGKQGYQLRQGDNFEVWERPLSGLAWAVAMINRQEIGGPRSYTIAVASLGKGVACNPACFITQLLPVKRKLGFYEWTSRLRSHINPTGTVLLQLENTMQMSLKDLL
# Description: as §1, §2, §3, §4
# [4] = test system: mutant form of α-Gal A expressed in HEK-293 cells; assay: HEK assay amenability criteria (relative increase ≥1.20-fold and absolute increase ≥3.0% wild-type)
# Description: The α-Gal A activity was measured in lysates prepared from HEK-293 cells transiently transfected with the indicated mutant form of α-Gal A and incubated in the absence or presence of 10 μM migalastat for 5 days. The α-Gal A activity is expressed as the nmoles of free 4-MU released per milligram of protein per hour (nmol/mg/hr). Baseline α-Gal A activity and α-Gal A activity after incubation with 10 μM migalastat, were additionally expressed as a percentage of baseline wild-type α-Gal A activity (% WT). The wild-type α-Gal A activity that was used to calculate these percentages was the average activity measured in lysates from wild-type transfected cells, incubated in the absence of migalastat, measured in parallel.
# [5] = target: T4, α-Gal A mutant form L189F (Homo sapiens, UniProt P06280, L189F); assay: α-Gal A activity in lysates of transfected HEK-293 cells, L189F; assay type: cell-based
# T4 construct: expressed in transfected cells; host or cells: HEK-293
# T4 sequence (P06280 32-429 L189F): T1 sequence (P06280 32-429 R392T) with L158F, T361R
# Description: as §1, §2, §3, §4
# [6] = target: T5, α-Gal A mutant form R112L (Homo sapiens, UniProt P06280, R112L); assay: α-Gal A activity in lysates of transfected HEK-293 cells, R112L; assay type: cell-based
# T5 construct: expressed in transfected cells; host or cells: HEK-293
# T5 sequence (P06280 32-429 R112L): T1 sequence (P06280 32-429 R392T) with R81L, T361R
# Description: as §1, §2, §3, §4
# [7] = 10 μM migalastat minus baseline
# [8] = 10 μM migalastat ÷ baseline activity
# [9] = HEK-293 lysates, 10 μM migalastat, 5 days, mean ± SEM
compound,measurement,setting,value
"OC[C@H]1NC[C@H](O)[C@@H](O)[C@H]1O [migalastat, (2R,3S,4R,5S)-2-(hydroxymethyl) piperdine-3,4,5-triol]",Absolute increase (% WT),[1]; [7],21.3 % WT
same,Relative increase,[1]; [8],1.22
same,10 nM migalastat α-Gal A activity,"[1]; HEK-293 lysates, 10 nM migalastat as printed, 5 days, mean ± SEM",36679 ± 1896 nmol/mg/h
same,10 μM migalastat α-Gal A activity (% WT),[1]; [9],125.9 ± 6.2 % WT
same,Absolute increase (% WT),[2]; [7],14.5 % WT
same,Relative increase,[2]; [8],3.81
same,10 μM migalastat α-Gal A activity,[2]; [9],6619 ± 337 nmol/mg/h
same,10 μM migalastat α-Gal A activity (% WT),[2]; [9],19.8 ± 1.0 % WT
same,Absolute increase (% WT),[3]; [7],20.9 % WT
same,Relative increase,[3]; [8],50.92
same,10 μM migalastat α-Gal A activity,[3]; [9],8115 ± 810 nmol/mg/h
same,10 μM migalastat α-Gal A activity (% WT),[3]; [9],21.3 ± 1.7 % WT
same,in vitro response to incubation with migalastat (amenability),"[4]; Table 2, mutations D33H, G35A, Y88S, T194A, W204G, Y216S, Q250K, and R392T",met amenability criteria
same,in vitro response to incubation with migalastat (amenability),"[4]; Table 3, mutations printed as D33H, G35A, Y88S, T194A, W204G, Y216S, Q250K, and R392T",met amenability criteria
same,in vitro response to incubation with migalastat (amenability),"[4]; Table 4, mutations V22G, N34H, G80V, Q107R, Y152D, A156S, L189F, W204L, S238G, 1239M, A257V, P259Q, N320H, P323T, E338V, P380L, and T412P",met amenability criteria
same,Absolute increase (% WT),[5]; [7],15.3 % WT
same,Relative increase,[5]; [8],1.22
same,10 μM migalastat α-Gal A activity,[5]; [9],27388 ± 1605 nmol/mg/h
same,10 μM migalastat α-Gal A activity (% WT),[5]; [9],84.6 ± 3.8 % WT
same,Absolute increase (% WT),[6]; 10 μM migalastat minus baseline (baseline BLD),7.5 % WT
same,10 μM migalastat α-Gal A activity (% WT),[6]; [9],7.5 ± 1.1 % WT
same,10 μM migalastat α-Gal A activity,"[6]; HEK-293 lysates, 10 μM migalastat, 5 days, mean ± SEM, baseline BLD",2364 ± 296 nmol/mg/h
